From patent publication US9896443B2, “Perforin inhibiting benzenesulfonamide compounds, preparation and uses thereof” (Peter MacCallum Cancer Institute, priority 2012, dated 2018)
Where two headings read alike, the source gives them in different places.

Legend:
recombinant perforin = recombinant perforin (UniProt P10820); format: cell-based
Experimental: Inhibition of perforin-mediated lysis of Jurkat cells.
The ability of the compounds to inhibit the lysis of nucleated (Jurkat T lymphoma) cells in the presence of 0.1% BSA, as measured by release of ^51Cr was measured. Jurkat target cells were labelled by incubation in medium with 100 μCi ^51Cr for one hour. The cells were then washed three times to remove unincorporated isotope and re-suspended at 1×10^5 cells per mL in RPMI buffer supplemented with 0.1% BSA. […] Each data point was performed in triplicate and an IC50 was calculated from the range of concentrations described to above.

[1] = tested on: KHYG-1 NK cell-mediated lysis of K562 cells; test: Inhibition of KHYG-1 NK cell-mediated lysis of K562 cells (51Cr release); format: cell-based; settings: K562 target cells, Effector:Target 2:1, 4 hours at 37° C.; for inhibition at 20 µM: 4 h
Experimental: Inhibition of KHYG-1 NK Cell-Mediated Lysis of K562 Cells.
Test compounds were added to KHYG-1 cells at various concentrations up to 20 µM and incubated at RT for 20 minutes. 1×10^6 K562 target cells were labelled with 75 μCi ^51Cr in 200 μl RPMI for 90 mins at 37° C., cells were washed as described above and resuspended in 5 ml RPMI+0.1% BSA. 50 μl of ^51Cr labelled K562 leukemia target cells were added to each well of the KHYG-1 plate (Effector:Target 2:1) and incubated at 37° C. for 4 hours. ^51Cr release was assayed using a Skatron Harvesting Press and radioactivity estimated on a Wallac Wizard 1470 Automatic Gamma counter (Turku, Finland). The percentage of specific cytotoxicity was calculated by the formula: […]

[2] = lysis of Jurkat T lymphoma cells by recombinant perforin, 0.1% BSA, 30 min pre-incubation, 4 hours at 37° C.; read-out: Jurkat IC50

recombinant perforin, sequence (P10820 whole entry): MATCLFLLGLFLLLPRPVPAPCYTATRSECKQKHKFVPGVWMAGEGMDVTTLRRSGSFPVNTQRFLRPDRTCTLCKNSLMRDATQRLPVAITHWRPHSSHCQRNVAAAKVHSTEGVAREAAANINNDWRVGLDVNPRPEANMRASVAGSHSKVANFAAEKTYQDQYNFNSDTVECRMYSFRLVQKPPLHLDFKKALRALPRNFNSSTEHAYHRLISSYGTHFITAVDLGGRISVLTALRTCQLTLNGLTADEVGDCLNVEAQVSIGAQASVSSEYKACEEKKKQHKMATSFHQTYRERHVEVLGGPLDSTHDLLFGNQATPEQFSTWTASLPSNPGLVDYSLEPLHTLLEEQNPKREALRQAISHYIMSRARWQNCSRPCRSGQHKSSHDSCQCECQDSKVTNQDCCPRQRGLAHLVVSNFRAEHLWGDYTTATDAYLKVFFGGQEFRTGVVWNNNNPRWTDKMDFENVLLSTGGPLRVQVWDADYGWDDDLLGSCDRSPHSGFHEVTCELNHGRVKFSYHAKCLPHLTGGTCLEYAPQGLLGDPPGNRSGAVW

melting point	Compound	IC50 (recombinant perforin; [2]) [µM]	inhibition at 20 µM [1] [%]	other results
292 to 294 °C	CN1Cc2cc(-c3ccc(-c4cncc(NS(=O)(=O)c5cccc(F)c5)c4)s3)ccc2C1=O [Compound 5, 3-Fluoro-N-(5-(5-(2-methyl-1-oxoisoindolin-5-yl)thiophen-2-yl)pyridin-3-yl)benzene-sulfonamide]			
269 to 272 °C	CN1Cc2cc(-c3ccc(-c4ccc(NS(=O)(=O)c5ccc(F)cc5F)nc4)s3)ccc2C1=O [Compound 42, 2,4-Difluoro-N-(5-(5-(2-methyl-1-oxoisoindolin-5-yl)thiophen-2-yl)pyridin-2-yl)benzenesulfonamide]			
268 to 271 °C	Cc1ccc(NS(=O)(=O)c2ccc(F)cc2F)cc1-c1ccc(-c2ccc3c(c2)CN(C)C3=O)s1 [Compound 61, 2,4-Difluoro-N-(4-methyl-3-(5-(2-methyl-1-oxoisoindolin-5-yl)thiophen-2-yl)phenyl)benzenesulfonamide]			
229 to 230 °C	CC1c2cc(-c3ccc(-c4cncc(NS(=O)(=O)c5ccc(F)cc5F)c4)s3)ccc2C(=O)N1C (stereo not drawn) [Compound 51, N-(5-(5-(2,3-Dimethyl-1-oxoisoindolin-5-yl)thiophen-2-yl)pyridin-3-yl)-2,4-difluorobenzenesulfonamide]			
292 to 295 °C	CN1Cc2cc(-c3ccc(-c4cncc(NS(=O)(=O)c5ccc(C(F)(F)F)cc5Cl)c4)s3)ccc2C1=O [Compound 26, 2-Chloro-N-(5-(5-(2-methyl-1-oxoisoindolin-5-yl)thiophen-2-yl)pyridin-3-yl)-4-(trifluoromethyl)benzenesulfonamide]			
	CN1Cc2cc(-c3ccc(-c4cncc(NS(=O)(=O)c5ccc(C#N)cc5)c4)s3)ccc2C1=O [Compound 30, 4-Cyano-N-(5-(5-(2-methyl-1-oxoisoindolin-5-yl)thiophen-2-yl)pyridin-3-yl)benzenesulfonamide]	5.17	49	
280 to 283 °C	COc1ncc(-c2ccc(-c3ccc4c(c3)CN(C)C4=O)s2)cc1NS(=O)(=O)c1ccccc1 [Compound 36, N-(2-Methoxy-5-(5-(2-methyl-1-oxoisoindolin-5-yl)thiophen-2-yl)pyridin-3-yl)benzenesulphonamide]			
	CN1Cc2cc(-c3ccc(-c4cncc(NS(=O)(=O)c5c(F)cc(F)cc5F)c4)s3)ccc2C1=O [Compound 8, 2,4,6-Trifluoro-N-(5-(5-(2-methyl-1-oxoisoindolin-5-yl)thiophen-2-yl)pyridin-3-yl)benzene-sulfonamide]	1.76	52	
	O=C1Cc2cc(-c3ccc(-c4cncc(NS(=O)(=O)c5ccc(F)cc5F)c4)s3)ccc2N1 [Compound 67, 2,4-Difluoro-N-(5-(5-(2-oxoindolin-5-yl)thiophen-2-yl)pyridin-3-yl)benzenesulfonamides]		42.8 ± 10	IC50 (recombinant perforin; read-out: Jurkat IC50; lysis of Jurkat T lymphoma cells by recombinant perforin, 0.1% BSA, 30 min pre-incubation, 4 hours at 37° C.): 5.04 µM
	CN1Cc2cc(-c3ccc(-c4cnc(F)c(NS(=O)(=O)c5ccc(F)cc5F)c4)s3)ccc2C1=O [Compound 39, 2,4-Difluoro-N-(2-fluoro-5-(5-(2-methyl-1-oxoisoindolin-5-yl)thiophen-2-yl)pyridin-3-yl)benzenesulphonamide]	1.99	56	
	CN1Cc2cc(-c3ccc(-c4cncc(NS(=O)(=O)c5ccc([N+](=O)[O-])cc5)c4)s3)ccc2C1=O [Compound 29.Na, N-(5-(5-(2-Methyl-1-oxoisoindolin-5-yl)thiophen-2-yl)pyridin-3-yl)-4-nitrobenzenesulfonamide]	3.34		Inhibition of KHYG-1 at 20 μM (%) [1]: 49%
	CN1Cc2cc(-c3ccc(-c4cncc(NS(=O)(=O)c5ccc(C(=O)O)cc5)c4)s3)ccc2C1=O [Compound 73, 4-(N-(5-(5-(2-Methyl-1-oxoisoindolin-5-yl)thiophen-2-yl)pyridin-3-yl)sulfamoyl)benzoic acid]	0.75	56.9 ± 29.6	
267 to 270 °C	O=C1NCCc2cc(-c3ccc(-c4cncc(NS(=O)(=O)c5ccc(F)cc5F)c4)s3)ccc21 [Compound 52, 2,4-Difluoro-N-(5-(5-(1-oxo-1,2,3,4-tetrahydroisoquinolin-6-yl)thiophen-2-yl)pyridin-3-yl)benzensulphonamide]			
	CN1Cc2cc(-c3ccc(-c4cncc(NS(=O)(=O)c5ccc(F)c(C(F)(F)F)c5)c4)s3)ccc2C1=O [Compound 89, 4-Fluoro-N-(5-(5-(2-methyl-1-oxoisoindolin-5-yl)thiophen-2-yl)pyridin-3-yl)-3-(trifluoromethyl)benzenesulphonamide]	3.75	59.9 ± 13	
	CN1Cc2cc(-c3ccc(-c4cncc(NS(=O)(=O)c5ccccc5S(C)(=O)=O)c4)s3)ccc2C1=O [Compound 82, N-(5-(5-(2-Methyl-1-oxoisoindolin-5-yl)thiophen-2-yl)pyridin-3-yl)-2-(methylsulfonyl)benzenesulfonamides]	6.8	30.5 ± 11	
260 to 265 °C	CN1Cc2cc(-c3ccc(-c4cncc(NS(=O)(=O)c5ccc(Cl)nc5)c4)s3)ccc2C1=O [Compound 33, 6-Chloro-N-(5-(5-(2-methyl-1-oxoisoindolin-5-yl)thiophen-2-yl)pyridin-3-yl)pyridine-3-sulfonamide]			
	CN1Cc2cc(-c3ccc(-c4cncc(NS(=O)(=O)c5ccc(I)cc5)c4)s3)ccc2C1=O [Compound 74, 4-Iodo-N-(5-(5-(2-methyl-1-oxoisoindolin-5-yl)thiophen-2-yl)pyridin-3-yl)benzenesulfonamides]	5	15.6 ± 5	
	Cc1cc(F)ccc1S(=O)(=O)Nc1cncc(-c2ccc(-c3ccc4c(c3)CN(C)C4=O)s2)c1 [Compound 70, 4-Fluoro-2-methyl-N-(5-(5-(2-methyl-1-oxoisoindolin-5-yl)thiophen-2-yl)pyridin-3-yl)benzenesulphonamide]	5.53	17.6 ± 13	
	COC(=O)c1ccc(S(=O)(=O)Nc2cncc(-c3ccc(-c4ccc5c(c4)CN(C)C5=O)s3)c2)cc1 [Compound 84, Methyl 4-(N-(5-(5-(2-methyl-1-oxoisoindolin-5-yl)thiophen-2-yl)pyridin-3-yl)sulfamoyl)benzoate]	8.16	8.84	
	CN1Cc2cc(-c3ccc(-c4cncc(NS(=O)(=O)c5ccc(-c6ccno6)s5)c4)s3)ccc2C1=O [Compound 76, 5-(Isoxazol-5-yl)-N-(5-(5-(2-methyl-1-oxoisoindolin-5-yl)thiophen-2-yl)pyridin-3-yl)thiophene-2-sulfonamide]	7.1	47.5 ± 10	
239 to 241 °C	O=C1c2ccc(-c3ccc(-c4cncc(NS(=O)(=O)c5ccc(F)cc5F)c4)s3)cc2CN1CCCO [Compound 57, 2,4-Difluoro-N-(5-(5-(2-(3-hydroxypropyl)-1-oxoisoindolin-5-yl)thiophen-2-yl)pyridin-3-yl)benzenesulfonamide]			
285 to 288 °C	CN1Cc2cc(-c3ccc(-c4cncc(NS(=O)(=O)c5ccc(C(C)(C)C)cc5)c4)s3)ccc2C1=O [Compound 3, 4-(tert-Butyl)-N-(5-(5-(2-methyl-1-oxoisoindolin-5-yl)thiophen-2-yl)pyridin-3-yl)benzenesulfonamide]			
	CN1Cc2cc(-c3ccc(-c4cncc(NS(=O)(=O)c5ccccc5C(F)(F)F)c4)s3)ccc2C1=O [Compound 78, N-(5-(5-(2-Methyl-1-oxoisoindolin-5-yl)thiophen-2-yl)pyridin-3-yl)-2-(trifluoromethyl)benzenesulfonamide]	1.45	56 ± 9	
	CN1Cc2cc(-c3ccc(-c4cnc(F)c(NS(=O)(=O)c5ccc(F)cc5F)c4)s3)ccc2C1=O [Compound 39.Na, 2,4-Difluoro-N-(2-fluoro-5-(5-(2-methyl-1-oxoisoindolin-5-yl)thiophen-2-yl)pyridin-3-yl)benzenesulphonamide]	0.75		Inhibition of KHYG-1 at 20 μM (%) [1]: 48%
252 °C (dec.)	O=C1NCCc2ccc(-c3ccc(-c4cncc(NS(=O)(=O)c5ccc(F)cc5F)c4)s3)cc21 [Compound 54, 2,4-Difluoro-N-(5-(5-(1-oxo-1,2,3,4-tetrahydroisoquinolin-7-yl)thiophen-2-yl)pyridin-3-yl)benzenesulfonamide]			
	CN1Cc2cc(-c3ccc(-c4cncc(NS(=O)(=O)c5ccc([N+](=O)[O-])cc5)c4)s3)ccc2C1=O [Compound 29, N-(5-(5-(2-Methyl-1-oxoisoindolin-5-yl)thiophen-2-yl)pyridin-3-yl)-4-nitrobenzenesulfonamide]	2.74	48	
293 to 296 °C	CN1Cc2cc(-c3ccc(-c4cncc(NS(=O)(=O)c5ccc(OC(F)(F)F)cc5)c4)s3)ccc2C1=O [Compound 24, N-(5-(5-(2-Methyl-1-oxoisoindolin-5-yl)thiophen-2-yl)pyridin-3-yl)-4-(trifluoromethoxy)benzenesulfonamide]			
